Publication PMC6273799, “The Interference of Selected Cytotoxic Alkaloids with the Cytoskeleton: An Insight into Their Modes of Action” (Molecules, 2016)
Like-named read-outs stand apart in the source and are kept apart here.

Legend:
[1] = tested on: Hela, MCF-7 and U2OS cells; assay: MTT cytotoxicity, summary over three cell lines; assay type: cell-based; conditions: Homo sapiens, MCF-7, U2OS
Experimental: (§1) The anti-proliferative effects of alkaloids were assessed using the MTT assay, as previously described. In brief, 1 × 10^4 cells were seeded in 96-well-plates and incubated with serial dilutions of alkaloids for 48 h (Hela, U2OS) and 72 h (MCF-7). MTT solution was then added and incubated for 2 h. After the addition of DMSO, the plate was read at 570 nm using the Tecan infinite M200 Pro (Tecan, Crailsheim, Germany).
(§2) All experiments were performed at least three times. Data are presented as the mean ± standard deviation. Statistical comparison between controls and different treatments were performed by an unpaired Student’s t-test. Significance was considered at p < 0.05.

[2] = tested on: microtubules in Hela cells; assay: Immunofluorescence staining of microtubules and spindles in Hela cells; assay type: cell-based, human; conditions: for effect on mitotic spindles: Hela metaphase cells, IC50, 24 h; for effect on interphase cellular microtubules: Hela, immunofluorescence, IC80
Experimental: (§3) Then, cells were fixed in 4% paraformaldehyde at 4 °C for 20 min and permeabilized by 0.3% (v/v) Triton X-100 for 10 min. Nonspecific binding sites on the coverslips were blocked by incubating them with 5% FBS for 1 h. To stain the microtubules, cells were firstly incubated with 1:100 mouse anti-α-tubulin monoclonal IgG for 1 h and then with 1:200 goat anti-mouse […] for 1 h. Cells were then incubated with […] Atto 390 phalloidin for 45 min to stain the actin filaments and 20 μg/mL propidium iodide for 30 min to stain the cell nucleus/chromosomes. After washing steps, the coverslips were mounted by mowiol. Microtubules, actin filaments and cell nucleus/chromosomes were observed and analyzed using the Keyence BZ-9000 microscope as described before.

[3] = tested on: microtubules in U2OS cells; assay: Imaging of microtubule network in α-tubulin-GFP U2OS cells; assay type: cell-based, human
Experimental: α-Tubulin-GFP U2OS cells (1 × 10^5) were seeded in 24-well plates and grown for 24 h. […] The images were analyzed using BZ-II Analyzer software (version 2.1, Keyence, Neu-Isenburg, Germany).

[4] = tested on: Hela cells; assay: MTT cytotoxicity assay, Hela; assay type: cell-based, human; conditions: 48 h, mean ± SD
Experimental: as §1, §2

[5] = target: T1, tubulin plus microtubule-associated proteins (MAPs) from porcine brains (Sus scrofa, UniProt P02550+P02554); assay: In vitro tubulin polymerization assay (light scattering at 360 nm); assay type: biochemical; conditions: for IC50: 5.6 mg/mL tubulin-MAPs, 37 °C, 40 min, read-out: IC50 inhibition of tubulin polymerization in vitro; for effect on tubulin polymerization in vitro: tubulin-MAPs
T1 construct: prepared from porcine brains (freshly obtained from a local slaughter house) by two cycles of polymerization and depolymerization; from tissue; host or cells: porcine brain
T1 sequence (P02550 whole entry): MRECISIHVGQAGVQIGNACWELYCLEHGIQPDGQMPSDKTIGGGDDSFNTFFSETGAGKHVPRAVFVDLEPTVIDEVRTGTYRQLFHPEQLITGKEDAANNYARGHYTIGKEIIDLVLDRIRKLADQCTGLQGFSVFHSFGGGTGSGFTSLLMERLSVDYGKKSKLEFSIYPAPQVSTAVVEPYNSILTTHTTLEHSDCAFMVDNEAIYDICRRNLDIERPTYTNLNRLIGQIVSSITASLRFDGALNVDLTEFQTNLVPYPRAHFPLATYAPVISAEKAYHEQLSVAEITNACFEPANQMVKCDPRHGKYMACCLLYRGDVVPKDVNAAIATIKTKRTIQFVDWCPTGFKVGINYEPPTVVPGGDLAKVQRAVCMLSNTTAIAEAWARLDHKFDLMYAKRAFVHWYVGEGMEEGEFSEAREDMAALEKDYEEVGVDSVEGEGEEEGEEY
T1 sequence (P02554 whole entry): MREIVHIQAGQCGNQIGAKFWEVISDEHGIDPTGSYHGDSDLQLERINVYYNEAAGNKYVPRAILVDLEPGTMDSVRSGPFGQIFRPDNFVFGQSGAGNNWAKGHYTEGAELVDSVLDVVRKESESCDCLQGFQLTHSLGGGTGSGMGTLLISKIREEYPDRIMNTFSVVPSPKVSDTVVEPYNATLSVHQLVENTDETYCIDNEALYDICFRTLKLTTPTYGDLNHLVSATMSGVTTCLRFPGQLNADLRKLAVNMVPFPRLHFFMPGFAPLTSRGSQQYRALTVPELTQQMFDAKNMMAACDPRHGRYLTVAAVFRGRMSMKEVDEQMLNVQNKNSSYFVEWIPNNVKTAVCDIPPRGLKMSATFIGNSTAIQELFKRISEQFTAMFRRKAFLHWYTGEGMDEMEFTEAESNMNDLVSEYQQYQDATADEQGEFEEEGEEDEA
Experimental: Tubulin plus microtubule-associated proteins (MAPs) were prepared from porcine brains (freshly obtained from a local slaughter house) by two cycles of polymerization and depolymerization according to a standard protocol. […] The rate and extent of the polymerization reaction were monitored by light scattering at 360 nm using Tecan infinite M200 Pro.
as §2

[6] = tested on: Hela cells; assay: Cell cycle analysis by flow cytometry (propidium iodide); assay type: cell-based, human
Experimental: Cell cycle analysis was carried out as established in our laboratory. Hela cells (5 × 10^5) were seeded in 6-well plates and treated with different concentrations of alkaloids for 24 h. Cells were then collected, centrifuged and fixed in 70% ice-cold ethanol for at least 8 h. After the washing steps, cells were treated with 0.2 mg/mL RNase A for 30 min at 37 °C and then stained with 0.1 mg/mL propidium iodide. Samples were analyzed using a FACScan flow cytometer (Becton Dickinson, Heidelberg, Germany). Data were analyzed using Cell Quest™ Pro software (Becton Dickinson) and Microsoft Excel 2013 (Microsoft Corporation, Redmond, WA, USA).

[7] = tested on: U2OS cells; assay: MTT cytotoxicity assay, U2OS; assay type: cell-based, human; conditions: 48 h, mean ± SD
Experimental: as §1, §2

[8] = tested on: MCF-7 cells; assay: MTT cytotoxicity assay, MCF-7; assay type: cell-based, human; conditions: mean ± SD
Experimental: as §1, §2

[9] = tested on: actin filaments in Hela cells; assay: Imaging of actin filaments in Hela cells (actin-RFP, immunofluorescence); assay type: cell-based, human; conditions: high concentration (IC80)
Experimental: as §3
Hela cells (2 × 10^4) were seeded in 24-well plates and mixed with CellLight® Actin-RFP BacMam 2.0, which is a fusion construct of human actin and TagRFP, providing an accurate and specific targeting to cellular actin filaments. After 16 h of incubation, 200 μL of different concentrations of alkaloids (IC80, IC50) were added into each well, and the cells were analyzed as described above (Section 4.4).

[10] = read-out: IC50 values, range over three cell lines
[11] = U2OS α-tubulin-GFP, IC80 and IC50, 2-48 h
[12] = read-out: IC50 values, range over all three cell lines

COc1ccc2c(c[n+](C)c3c4cc5c(cc4ccc23)OCO5)c1OC [Chelerythrine, chelerythrine]
IC50 [1, 10]: 920 to 7630 nM | effect on mitotic spindles [2]: abnormal, but still bipolar spindles | effect on interphase cellular microtubules [2]: significantly reduced the mass of microtubules | effect on microtubule network [3, 11]: displayed similar effects as sanguinarine | IC50 ([4]; Homo sapiens, HeLa): 3.85 ± 2.1 µM | IC50 ([5]; mean ± SD): 206 ± 4.2 µM | effect on cell cycle ([6]; 24 h): did not change the proportion of mitotic cells | IC50 ([7]; Homo sapiens, U2OS): 2.88 ± 0.76 µM | IC50 ([8]; Homo sapiens, MCF7, 72 h): 7.63 ± 3.43 µM | effect on actin filaments [9]: significant reduction of actin filament mass

CN1Cc2c(ccc3c2OCO3)[C@@H]2[C@H]1c1cc3c(cc1C[C@@H]2O)OCO3 [Chelidonine, chelidonine]
IC50 [1, 10]: 920 to 7630 nM | effect on mitotic spindles [2]: multipolar spindles with chromosome congression failure | effect on microtubule network [3]: significantly decreased cellular microtubule mass | IC50 ([4]; Homo sapiens, HeLa): 1.13 ± 0.37 µM | IC50 ([5]; mean ± SD): 34.5 ± 9.47 µM | G2/M population ([6]; 2.5 μM, 24 h): 88.27% ± 0.99% | IC50 ([7]; Homo sapiens, U2OS): 3.86 ± 1.99 µM | IC50 ([8]; Homo sapiens, MCF7, 72 h): 3.85 ± 0.1 µM | effect on actin filaments [9]: significant reduction of actin filament mass

COc1cc2c(c(OC)c1OC)-c1ccc(OC)c(=O)cc1[C@@H](NC(C)=O)CC2 [Colchicine, colchicine]
effect on mitotic spindles [2]: completely depolymerized spindle | effect on microtubule network [3, 11]: reduced the mass of the microtubule network | G2/M population ([6]; 0.1 μM, 24 h): 89.66% ± 2.04% | effect on actin filaments [9]: No apparent changes of actin filaments

COC(=O)C[C@](O)(CCCC(C)(C)O)C(=O)O[C@@H]1C(OC)=C[C@]23CCCN2CCc2cc4c(cc2[C@H]13)OCO4 [Homoharringtonine, homoharringtonine]
IC50 [1, 12]: 0.87 to 9.03 nM | effect on mitotic spindles [2]: did not affect mitotic spindles | effect on microtubule network [3, 11]: No obvious changes on the cellular microtubule network | IC50 ([4]; Homo sapiens, HeLa): 0.00903 ± 0.00038 µM | IC50 [5]: > 1000 µM | effect on tubulin polymerization in vitro [5]: did not affect tubulin polymerization | effect on cell cycle ([6]; 24 h): had no impact on the cell cycle | IC50 ([7]; Homo sapiens, U2OS): 0.003 ± 0.00167 µM | IC50 ([8]; Homo sapiens, MCF7, 72 h): 0.00087 ± 0.00045 µM | effect on actin filaments [9]: No apparent changes of actin filaments

C/C1=C/C(=O)O[C@@H]2C[C@@H](CC[C@H](C)/C=C\CC1)O[C@@](O)([C@@H]1CSC(=O)N1)C2 [Latrunculin B, latrunculin B]
effect on microtubule network [3, 11]: immediately changed the cell morphology | IC50 [4]: 7.13 ± 0.61 µM | G2/M population ([6]; 7 μM, 24 h): 80.05% ± 11.89% | IC50 [7]: 5.48 ± 0.68 µM | IC50 ([8]; 72 h): 36.8 ± 2.25 µM | effect on actin filaments [9]: extensive depolymerization of the actin network

COc1ccc2c(c1OC)C(=O)O[C@@H]2[C@H]1c2c(cc3c(c2OC)OCO3)CCN1C [Noscapine, noscapine]
effect on mitotic spindles [2]: multipolar spindles with chromosome congression failure | effect on microtubule network [3, 11]: remarkably depolymerized the microtubule network and reduced its mass | IC50 ([4]; Homo sapiens, HeLa): 16.8 ± 9.79 µM | IC50 [5]: > 1000 µM | G2/M population ([6]; 80 μM, 24 h): 73.42% ± 8.31% | IC50 ([7]; Homo sapiens, U2OS): 60.9 ± 12.2 µM | IC50 ([8]; Homo sapiens, MCF7, 72 h): 35.2 ± 8.18 µM | effect on actin filaments [9]: No apparent changes of actin filaments

CC(=O)O[C@H]1C(=O)[C@@]2(C)[C@H]([C@H](OC(=O)c3ccccc3)[C@]3(O)C[C@H](OC(=O)[C@H](O)[C@@H](NC(=O)c4ccccc4)c4ccccc4)C(C)=C1C3(C)C)[C@]1(OC(C)=O)CO[C@@H]1C[C@@H]2O [Paclitaxel, paclitaxel]
effect on mitotic spindles [2]: aberrant, but still bipolar spindles | effect on microtubule network [3, 11]: promoted the polymerization of microtubules | IC50 ([4]; Homo sapiens, HeLa): 8e-05 ± 0.0001 µM | IC50 ([5]; mean ± SD): 38.2 ± 3.33 µM | G2/M population ([6]; 0.1 μM, 24 h): 80.37% ± 5.36% | IC50 ([7]; Homo sapiens, U2OS): 0.23 ± 0.1 µM | IC50 ([8]; Homo sapiens, MCF7, 72 h): 1.05 ± 0.43 µM | effect on actin filaments [9]: No apparent changes of actin filaments

CN1CCc2cc3c(cc2C(=O)Cc2ccc4c(c2C1)OCO4)OCO3 [Protopine, protopine]
effect on mitotic spindles [2]: thickened spindle arrays | effect on microtubule network [3, 11]: notably enhanced the assembly of the microtubule network | IC50 ([4]; Homo sapiens, HeLa): 27.5 ± 11.8 µM | IC50 [5]: > 1000 µM | effect on tubulin polymerization in vitro [5]: did not affect tubulin polymerization | G2/M population ([6]; 250 μM, 24 h): 54.35% ± 11.26% | G2/M population ([6]; 250.9 μM): 54.35% ± 11.26% | IC50 ([7]; Homo sapiens, U2OS): 62.4 ± 9.9 µM | IC50 ([8]; Homo sapiens, MCF7, 72 h): 67.3 ± 9.06 µM | effect on actin filaments [9]: No apparent changes of actin filaments

C[n+]1cc2c3c(ccc2c2ccc4cc5c(cc4c21)OCO5)OCO3 [Sanguinarine, sanguinarine]
IC50 [1, 10]: 920 to 7630 nM | effect on mitotic spindles [2]: had no impact on mitotic spindles | effect on interphase cellular microtubules [2]: significantly reduced the mass of microtubules | effect on microtubule network [3]: disrupted microtubule distribution and altered their morphology | IC50 ([4]; Homo sapiens, HeLa): 1.03 ± 0.04 µM | IC50 ([5]; mean ± SD): 48.4 ± 3.73 µM | effect on cell cycle ([6]; 24 h): did not change the proportion of mitotic cells | IC50 ([7]; Homo sapiens, U2OS): 0.92 ± 0.53 µM | IC50 ([8]; Homo sapiens, MCF7, 72 h): 1.24 ± 0.21 µM | effect on actin filaments [9]: significant reduction of actin filament mass

CC[C@]1(O)C[C@@H]2CN(CCc3c([nH]c4ccccc34)[C@@](C(=O)OC)(c3cc4c(cc3OC)N(C)[C@H]3[C@@](O)(C(=O)OC)[C@H](OC(C)=O)[C@]5(CC)C=CCN6CC[C@]43[C@@H]65)C2)C1 [Vinblastine, vinblastine]
IC50 [1, 12]: 0.02 to 0.1 nM | effect on mitotic spindles [2]: depolymerized bipolar spindles | effect on microtubule network [3, 11]: microtubules were extensively depolymerized and tubulin paracrystals were formed | IC50 ([4]; Homo sapiens, HeLa): 2e-05 ± 1e-05 µM | IC50 ([5]; mean ± SD): 1.42 ± 0.05 µM | G2/M population ([6]; 10 nM, 24 h): 78.04% ± 14.78% | IC50 ([7]; Homo sapiens, U2OS): 0.0001 ± 5e-05 µM | IC50 ([8]; Homo sapiens, MCF7, 72 h): 7e-05 ± 5e-05 µM | effect on actin filaments [9]: No apparent changes of actin filaments
